In patent publication US10080365B2, “Use of strobilurin type compounds for combating phytopathogenic fungi resistant to Qo inhibitors” (BASF SE, priority 2011, dated 2018):

Columns and labels:
[1] = tested on: Septoria tritici (Qo-inhibitor-resistant, G143A mutant); test: Microtiter test, Septoria tritici Qo-inhibitor-resistant G143A mutant (Use Example 1); assay type: cell-based; conditions: for IC50: microtiter test, Qo-inhibitor-resistant G143A mutant, turbidity at 620 nm, read-out: Resistant Septoria tritici isolate (G143A mutation) (R-IC50); for Resistance factor RF = R-IC50/S-IC50: ratio of IC50 for G143A resistant isolate to IC50 for wild-type sensitive isolate
Experimental: (§1) The active substances were formulated separately as a stock solution in dimethyl sulfoxide (DMSO) at a concentration of 10 000 ppm.
(§2) Activity against the Septoria blotch pathogen caused by Septoria tritici in the microtiter test
(§3) Fungal strains used: • a) Septoria tritici (Qo-inhibitor sensitive, wild-type) • b) Septoria tritici (Qo-inhibitor-resistant, G143A mutant)
(§4) 100 ml 2% Malt extract in water at pH6.8 were inoculated with microspores from 2 week old cultures grown on 2% malt extract+2% agar in Petri dishes and incubated for 3 days on a rotary shaker at 24° C. und 150 rpm. The culture was harvested, glycerol was added (15% (v/v) and kept frozen at −20° C. in aliquots of 1 ml.
(§5) 1 ml stock suspension was thawed and suspended into 800 ml of 2% malt extract in water at pH 6.8. Compounds were diluted from stock solution in (dimethylsulfoxide) DMSO in 10 steps. The compound solutions were diluted 1/5 with sterile deionized water before use. 5 μl of the compound solutions were transferred into empty microplates. The plates were then filled with 195 μl of the microspore suspension of each strain.
(§6) The antifungal activity was determined by measuring the turbidity of a culture in 96-well microplates in the presence of test compounds. Fungal growth was measured by recording the optical density at 620 nm every 15 h for 150 h. The relative antifungal activity was calculated by comparison of the effect of the test compounds with the effect of a DMSO control and a standard fungicide.
(§7) IC50-values (concentration of test compound resulting in 50% inhibition of fungal growth) were calculated from the resulting dose-response for each compound and strain. The initial concentration of the test compounds and the 10 steps of dilution (1:4 each) allowed IC50-values from 0.001 to 100 μmol/l (μM) to be assessed.

[2] = tested on: Septoria tritici (Qo-inhibitor sensitive, wild-type); test: Microtiter test, Septoria tritici Qo-inhibitor sensitive wild-type (Use Example 1); assay type: cell-based; conditions: turbidity at 620 nm, read-out: Sensitive Septoria tritici isolate (wild type) (S-IC50)
Experimental: as §1, §2, §3, §4, §5, §6, §7

SMILES | IC50 [1] | IC50 [2] | Resistance factor RF = R-IC50/S-IC50 [1]
CO/C=C(/C(=O)OC)c1ccccc1Oc1cc(Oc2ccccc2C#N)ncn1 [Azoxystrobin, reference compound] | > 100 µM | 3500 nM | –
CON=C(C(=O)OC)C(C)=CCOc1ccn(-c2ccc(Cl)cc2)n1 [Compound I-5] | 2.2 µM | 83 nM | 26
C=CCON=C(C)c1cc(C)c(OCC=C(C)C(=NOC)C(=O)NC)cc1C [Compound I-82] | 6.8 µM | 1100 nM | 6
C=CCON=C(C)c1ccc(OCC=C(C)C(=NOC)C(=O)NC)c(C)c1 [Compound I-83] | 7.6 µM | 1600 nM | 4.6
C=C(Cl)CON=C(C)c1cc(C)c(OCC=C(C)C(=NOC)C(=O)NC)cc1C [Compound I-84] | 16.1 µM | 500 nM | 33
C=C(Cl)CON=C(C)c1ccc(OCC=C(C)C(=NOC)C(=O)NC)c(C)c1 [Compound I-85] | 22 µM | 800 nM | 29
CC=CCON=C(C)c1cc(C)c(OCC=C(C)C(=NOC)C(=O)NC)cc1C [Compound I-90] | 26 µM | 1000 nM | 26
CC=CCON=C(C)c1ccc(OCC=C(C)C(=NOC)C(=O)NC)c(C)c1 [Compound I-91] | 27 µM | 1600 nM | 17
C=CCON=C(C)c1cc(C)c(OCC=C(C)C(=NOC)C(=O)OC)cc1C [Compound I-94] | 12 µM | 600 nM | 22
C=CCON=C(C)c1ccc(OCC=C(C)C(=NOC)C(=O)OC)c(C)c1 [Compound I-95] | 29 µM | 2200 nM | 14
C=C(Cl)CON=C(C)c1ccc(OCC=C(C)C(=NOC)C(=O)OC)c(C)c1 [Compound I-97] | 49 µM | 1700 nM | 29
CCON=C(C)c1ccc(OCC=C(C)C(=NOC)C(=O)OC)c(C)c1 [Compound I-191] | 37 µM | 1300 nM | 29
Cc1cc(-n2cccn2)ccc1OCc1ccccc1-n1nnn(C)c1=O [Compound I-212] | 8.3 µM | 1400 nM | 6
CC(=NOCc1ccccc1-n1nnn(C)c1=O)c1cccc(-c2cnn(-c3ccccc3)c2)c1 [Compound I-213] | 0.057 µM | 76 nM | 0.7
C/C(=N\OC/C=C/Cl)c1ccc(OCc2ccccc2-n2nnn(C)c2=O)c(C)c1 [Compound I-217] | 63 µM | 6300 nM | 10
C=CCO/N=C(\C)c1ccc(OCc2ccccc2-n2nnn(C)c2=O)c(C)c1 [Compound I-218] | 79 µM | 5600 nM | 14
C#CCO/N=C(\C)c1ccc(OCc2ccccc2-n2nnn(C)c2=O)c(C)c1 [Compound I-221] | 10 µM | 3400 nM | 3
C/C(=N\OC/C=C/Cl)c1cc(C)c(OCc2ccccc2-n2nnn(C)c2=O)cc1C [Compound I-223] | 19 µM | 2700 nM | 7
C=CCO/N=C(\C)c1cc(C)c(OCc2ccccc2-n2nnn(C)c2=O)cc1C [Compound I-224] | 5.4 µM | 1700 nM | 3.2
C/C=C/CO/N=C(\C)c1cc(C)c(OCc2ccccc2-n2nnn(C)c2=O)cc1C [Compound I-225] | 72 µM | 3400 nM | 21
C/C(=N\OC/C=C\Cl)c1cc(C)c(OCc2ccccc2-n2nnn(C)c2=O)cc1C [Compound I-228] | 10 µM | 3400 nM | 3.0
CC(Cc1ccc(Cl)cc1)=NOCc1ccccc1-n1nnn(C)c1=O [Compound I-230] | 25 µM | 3200 nM | 8
CO/N=C(\C)c1ccc(OCc2ccccc2-n2nnn(C)c2=O)c(C)c1 [Compound I-233] | 2.7 µM | 240 nM | 12
CCC/C(=N\OC)c1cc(C)c(OCc2ccccc2-n2nnn(C)c2=O)cc1C [Compound I-234] | 4 µM | 2400 nM | 1.7

SMILES | IC50 [1] | IC50 [2] | Resistance factor RF = R-IC50/S-IC50 [1]
CCC/C(=N\OC)c1ccc(OCc2ccccc2-n2nnn(C)c2=O)c(C)c1 [Compound I-235] | 51 µM | 13000 nM | 4
CCON=C(c1ccc(OCc2ccccc2-n2nnn(C)c2=O)c(C)c1)C1CC1 [Compound I-236] | 24 µM | 6000 nM | 4
CCON=C(CC)c1ccc(OCc2ccccc2-n2nnn(C)c2=O)c(C)c1 [Compound I-238] | 12 µM | 6000 nM | 1.9
Cn1nnn(-c2ccccc2COc2nn(-c3ccc(Cl)cc3)cc2Cl)c1=O [Compound I-243] | 15 µM | 4100 nM | 3.6
Cc1cn(-c2ccc(Cl)cc2)nc1OCc1ccccc1-n1nnn(C)c1=O [Compound I-244] | 1.3 µM | 600 nM | 2.0
Cn1nnn(-c2ccccc2COc2ccn(-c3cccc(C(F)(F)F)c3)n2)c1=O [Compound I-247] | 9 µM | 5000 nM | 1.9
CCON=C(C)c1ccc(OCc2ccccc2-n2nnn(C)c2=O)c(C)c1 [Compound I-249] | 11 µM | 2400 nM | 5
CCCC(=NOCC)c1cc(C)c(OCc2ccccc2-n2nnn(C)c2=O)cc1C [Compound I-250] | 97 µM | 19000 nM | 5
CCON=C(C)c1cc(C)c(OCc2ccccc2-n2nnn(CC)c2=O)cc1C [Compound I-255] | 42 µM | 19000 nM | 2.2
CCC(=NOC)c1ccc(OCc2ccccc2-n2nnn(CC)c2=O)c(C)c1 [Compound I-256] | 24 µM | 21000 nM | 1.1
CCn1nnn(-c2ccccc2COc2cc(C)c(C(C)=NOC)cc2C)c1=O [Compound I-257] | 67 µM | 15000 nM | 4.5
Cc1ccc(-n2cc(C)c(OCc3ccccc3-n3nnn(C)c3=O)n2)cc1 [Compound I-260] | 3.3 µM | 2300 nM | 1.4
CCc1ccc(-n2cc(C)c(OCc3ccccc3-n3nnn(C)c3=O)n2)cc1 [Compound I-261] | 5 µM | 2900 nM | 1.6
Cc1ccc(-n2cc(C)c(OCc3ccccc3-n3nnn(C)c3=O)n2)cc1C [Compound I-262] | 1.6 µM | 1000 nM | 1.6
Cc1ccc(-n2cc(C)c(OCc3ccccc3-n3nnn(C)c3=O)n2)c(C)c1 [Compound I-265] | 4 µM | 3800 nM | 1.1
Cc1cc(-c2cnco2)c(C)cc1OCc1ccccc1-n1nnn(C)c1=O [Compound I-267] | 5 µM | 2900 nM | 1.7
Cc1cc(-c2c(C)noc2C)c(C)cc1OCc1ccccc1-n1nnn(C)c1=O [Compound I-269] | 74 µM | 8000 nM | 10
Cc1ncc(-c2cc(C)c(OCc3ccccc3-n3nnn(C)c3=O)cc2C)o1 [Compound I-270] | 57 µM | 6000 nM | 10
Cc1cc(-c2cnoc2)c(C)cc1OCc1ccccc1-n1nnn(C)c1=O [Compound I-271] | 7 µM | 1900 nM | 3.9
Cc1c(OCc2ccccc2-n2nnn(C)c2=O)nn2c(C3CC3)cc(C3CC3)nc12 [Compound I-273] | 22 µM | 5000 nM | 4
CC(=NOCc1ccccc1-n1nnn(C)c1=O)C(=O)c1ccc(C)c(C)c1 [Compound I-274] | 19 µM | 9000 nM | 2.0
CCC(=CCOc1ccn(-c2ccc(Cl)cc2)n1)C(=NOC)C(=O)NC [Compound I-287] | 18 µM | 1500 nM | 12
CNC(=O)C(=NOC)C(C)=CCOc1ncn(-c2ccc(Cl)cc2)n1 [Compound I-288] | 28 µM | 3500 nM | 8.0
